{
  "source": "patent US20120258998A1",
  "about": "“Fusion genes in gastrointestinal cancer” (priority 2011, published 2012)",
  "type_in_all_cases": "cell-based",
  "key": {"SNU16 cells [1]": {"test_system": "SNU16 cells", "experiment": "5-Fluorouracil sensitivity, MTS proliferation assay", "conditions": "SNU16 cells before and after CD44-SLC1A2 siRNA1 silencing, vs scrambled siRNA", "procedure": "(§1) Gastric cancer cells and primary tissues were lysed with glutamate assay buffer and glutamate concentrations were determined using a Glutamate Assay Kit (BioVision, USA). Briefly, to each cellular lysate, a vendor-provided glutamate Enzyme Mix was added which recognizes glutamate as a specific substrate leading to proportional color development. For cisplatin treatments, cells were seeded into 96 well plates after siRNA transfection. Subsequently, cisplatin or 5-FU at increasing dosages were added (0-1 mM) to respective wells. Cells were subjected to MTS proliferation assays after 48 hours of drug treatment. Each assay was performed in triplicate, and the results were averaged over three independent experiments."}, "SNU16 cells [2]": {"test_system": "SNU16 cells", "experiment": "Cisplatin sensitivity, MTS proliferation assay", "conditions": "48 hours of drug treatment, read-out: GI50 (concentration required to cause 50% growth inhibition)", "procedure": "as §1"}, "AGS cells": {"test_system": "AGS cells", "experiment": "Cell proliferation assay, AGS fusion negative cells", "procedure": "Gastric cancer cells were transfected with either specific siRNAs targeted to the CD44-SLC1A2 fusion site (100 nM, custom siRNA siGENOME with SMART selection, Dharmacon) or negative control scrambled siRNAs using siPORT™ NeoFX™ transfection reagent (Applied Biosystem) in Optimem Medium (Invitrogen) following the manufacturer's protocol. After 24, 48, and 72 hours siRNA treatment, cells were subjected for downstream analysis. For overexpression studies, the full length coding regions of CD44-SLC1A2 cDNA were inserted into the pEGFP-N1 vector. Control vectors or fusion-GFP vectors were introduced into HFE145 cells, and stable transfectants were selected using puromycin for 4 weeks. Cell proliferation assays were performed using a CellTiter-96 Aqueous Nonradioactive Cell Proliferation Assay kit (Promega) following the manufacturer's instructions and the plates were measured by PerkinElmer plate reader. Cell invasion assays were performed using Biocoat™ Matrigel™ invasion chambers with 8 μm pore filter inserts (BD Bioscience). 48 hours after transfection, 5×10^4 cells were transferred to the upper matrigel chamber in 500 μl of serum-free medium and incubated for 24 hours. Invading cells were counted using light microscopy. Each assay was performed in triplicate, and the results were averaged over three independent experiments. […]"}, "SNU16 cells [3]": {"test_system": "SNU16 cells", "experiment": "Colony formation assay, SNU16", "conditions": "vs scrambled siRNA", "procedure": "(§2) Gastric cancer cells were transfected with either specific siRNAs targeted to the CD44-SLC1A2 fusion site (100 nM, custom siRNA siGENOME with SMART selection, Dharmacon) or negative control scrambled siRNAs using siPORT™ NeoFX™ transfection reagent (Applied Biosystem) in Optimem Medium (Invitrogen) following the manufacturer's protocol. After 24, 48, and 72 hours siRNA treatment, cells were subjected for downstream analysis. For overexpression studies, the full length coding regions of CD44-SLC1A2 cDNA were inserted into the pEGFP-N1 vector. Control vectors or fusion-GFP vectors were introduced into HFE145 cells, and stable transfectants were selected using puromycin for 4 weeks.\nBase layers of 0.5% Gum Agar in 1× McCoy's 5 A and 10% FBS were poured into 6-well plates and allowed to harden at 4° C. After 48 hours siRNA transfection, 50,000 cells/well were seeded in complete media plus agar mixture at 42° C. and seeded on top of the solidified base layer. Plates were incubated at 37° C. in for 3-4 weeks, during which plates were fed drop-wise with complete media. After 3-4 weeks, plates were photographed using the Kodak GL 200 System (EpiWhite illumination). Each assay was performed in triplicate, and the results were averaged over three independent experiments."}, "SNU16 cells [4]": {"test_system": "SNU16 cells", "experiment": "Cell proliferation assay, SNU16", "conditions": "vs scrambled/control siRNA", "procedure": "as §2\n(§3) Cell proliferation assays were performed using a CellTiter-96 Aqueous Nonradioactive Cell Proliferation Assay kit (Promega) following the manufacturer's instructions and the plates were measured by PerkinElmer plate reader. Cell invasion assays were performed using Biocoat™ Matrigel™ invasion chambers with 8 μm pore filter inserts (BD Bioscience). 48 hours after transfection, 5×10^4 cells were transferred to the upper matrigel chamber in 500 μl of serum-free medium and incubated for 24 hours. Invading cells were counted using light microscopy. Each assay was performed in triplicate, and the results were averaged over three independent experiments."}, "SNU16 cells [5]": {"test_system": "SNU16 cells", "experiment": "Matrigel cell invasion assay, SNU16", "conditions": "vs control", "procedure": "as §2, §3"}, "CD44-SLC1A2 fusion gene": {"test_system": "CD44-SLC1A2 fusion gene", "experiment": "RT-PCR of CD44-SLC1A2 expression after fusion-specific siRNA treatment", "conditions": "SNU16 cells, siRNA 100 nM, vs scrambled siRNA", "procedure": "(§4) Gastric cancer RNAs were reverse transcribed by SuperScript II reverse transcriptase enzyme using oligo-dT (T18) primers (Invitrogen). To detect CD44-SLC1A2, RT-PCR was performed using forward primers to CD44 exon 1 (5′-[…]-3′ (SEQ ID NO: 3)) and reverse primers to either SLC1A2 exon 3 (5′-[…]-3′ (SEQ ID NO: 4)); exon4 (5′-[…]-3′) (SEQ ID NO: 5); exons (5′-[…]-3′ (SEQ ID NO: 6)) or exon 6 (5′[…]-3′ (SEQ ID NO: 7)). Products were resolved by gel electrophoresis and bands of interest excised and cloned for subsequent analysis. To evaluate wild-type CD44 and SLC1A2 expression independently of CD44-SLC1A2, we used CD44 primers targeting exons 3, 4, 5; and SLC1A2 primers targeting exon 1. CD44-SLC1A2 RT-PCR involving clinical specimens (FIG. 1) was performed in an unselected cohort of gastric cancer patients. Reactions were repeated a minimum of three independent times.\n(§5) Gastric cancer cells were transfected with either specific siRNAs targeted to the CD44-SLC1A2 fusion site (100 nM, custom siRNA siGENOME with SMART selection, Dharmacon) or negative control scrambled siRNAs using siPORT™ NeoFX™ transfection reagent (Applied Biosystem) in Optimem Medium (Invitrogen) following the manufacturer's protocol. After 24, 48, and 72 hours siRNA treatment, cells were subjected for downstream analysis. […]"}, "SLC1A2 protein [6]": {"test_system": "SLC1A2 protein", "experiment": "Western blotting with anti-SLC1A2 antibodies, SNU16 membrane fraction", "conditions": "after fusion-specific siRNA", "procedure": "Cells were harvested in lysis buffer (10 mM Tris.Cl pH 7.5, 150 mM NaCl, 1% Triton X-114) for 1 hour at […], and centrifuged at 800 g. Supernatants were incubated at 30° C. for 5-10 min and further centrifuged at RT, 300 g. Western blotting was performed on membrane fractions using the following antibodies and dilutions: 1:500 SLC1A2/EAAT2 (Cell Signaling Technologies), 1:2000 α-tubulin (Cell Signaling Technologies). Experiments were repeated a minimum of three independent times.\nas §2"}, "SLC1A2 protein [7]": {"test_system": "SLC1A2 protein", "experiment": "Immunofluorescence staining with SLC1A2 antibodies", "conditions": "SNU16 cells, control vs fusion silenced", "procedure": "as §2\nCells were fixed with 3.7% formaldehyde followed by permeabilisation using 0.1% Triton X-100. After 3× washes with 1×PBS, cells were blocked with 1% BSA. Subsequently, cells were incubated with primary SLC1A2 antibodies (Cell Signaling Technology) for 2 hours followed by 2 hours secondary antibody (Sigma) incubation. Images were taken using a Nikon Eclipse TE2000-U microscope."}, "[8]": {"test_system": "wild-type CD44 and SLC1A2", "experiment": "RT-PCR of wild-type CD44 and SLC1A2 expression after fusion-specific siRNA treatment", "conditions": "SNU16 cells", "procedure": "as §4, §5"}},
  "note": "Where two headings read alike, the source gives them in different places.",
  "data": [
    {"compound": "O=c1[nH]cc(F)c(=O)[nH]1", "note": "[5-fluorouracil]", "values": [
      {"measurement": "5-Fluorouracil sensitivity, control vs CD44-SLC1A2 silenced cells", "setting": "SNU16 cells [1]", "value": "no differences between control and silenced cells were observed"},
      {"measurement": "5-Fluorouracil sensitivity, control vs CD44-SLC1A2 silenced cells", "setting": "SNU16 cells [1]; listed as 5-Fluorouracil", "value": "no significant change in sensitivity to 5-Fluorouracil"}
    ]},
    {"compound": "N.N.[Cl][Pt][Cl]", "note": "[cisplatin]", "values": [
      {"measurement": "GI50", "setting": "SNU16 cells [2]; SNU16 cells after CD44-SLC1A2 siRNA treatment", "value": 3.96, "unit": "µM"},
      {"measurement": "GI50", "setting": "SNU16 cells [2]; control SNU16 cells", "value": 11.8, "unit": "µM"}
    ]},
    {"compound": "siRNA1: siRNA targeting the CD44-SLC1A2 fusion site, 5′-CGCAGAUCGUGCCAACAAUUU-3′ (SEQ ID NO: 27) (chemistry not given here)", "values": [
      {"measurement": "proliferation of AGS cells after fusion-specific siRNA", "setting": "AGS cells", "value": "proliferation of AGS cells is not affected"}
    ]},
    {"compound": "siRNA2: second siRNA targeting the CD44-SLC1A2 fusion site, 5′-GCACAUCGUGCCAACAAUAUU-3′ (SEQ ID NO: 28) (chemistry not given here)", "values": [
      {"measurement": "colony formation (anchorage-independent growth)", "setting": "SNU16 cells [3]", "value": "reduction in numbers of colonies formed"},
      {"measurement": "proliferation rate", "setting": "SNU16 cells [4]", "value": "significant decrease in proliferation rate"},
      {"measurement": "cell invasion rate", "setting": "SNU16 cells [5]", "value": "significant reduction of invasion rate"},
      {"measurement": "CD44-SLC1A2 expression", "setting": "CD44-SLC1A2 fusion gene", "value": "Reduction of CD44-SLC1A2 expression"},
      {"measurement": "SLC1A2 protein expression (Western blotting)", "setting": "SLC1A2 protein [6]", "value": "knockdown of SLC1A2 protein expression"},
      {"measurement": "membranous expression of SLC1A2 (immunofluorescence)", "setting": "SLC1A2 protein [7]", "value": "significantly reduced"},
      {"measurement": "independent (regular) CD44 and SLC1A2 expression", "setting": "[8]", "value": "without impairing regular CD44 and SLC1A2 expression"},
      {"measurement": "proliferation of AGS cells after fusion-specific siRNA", "setting": "AGS cells", "value": "proliferation of AGS cells is not affected"}
    ]}
  ]
}
